Measurements as given in the NIST ThermoML archive (doi:10.1021/je050031f).
± gives the expanded uncertainty stated by the source.

Columns and labels:
[1] = refractive index (Na D-line) (dimensionless); xn = mol fraction of the nth substance listed; details: 100.8 kPa, Liquid, Standard Abbe refractometry
[2] = xn = mol fraction of the nth substance listed; details: 288.15 K, 100.8 kPa, Liquid; for viscosity: Capillary tube (Ostwald / Ubbelohde) method

CC1CCCCC1 [methylcyclohexane] + CC(C)OC(C)C
refractive index, [1]
Details	288.15 K	298.15 K	308.15 K
x2 = 0	1.42578 ± 0.00033	1.42053 ± 0.00033	1.41537 ± 0.00033
x2 = 0.0502	1.42321 ± 0.00032	1.41757 ± 0.00032	1.4125 ± 0.00032
x2 = 0.1	1.42014 ± 0.00032	1.4146 ± 0.00032	1.40957 ± 0.00032
x2 = 0.15	1.41715 ± 0.00032	1.41158 ± 0.00032	1.40663 ± 0.00032
x2 = 0.2	1.41419 ± 0.00032	1.40859 ± 0.00032	1.40365 ± 0.00032
x2 = 0.25	1.41129 ± 0.00032	1.40565 ± 0.00032	1.40068 ± 0.00032
x2 = 0.3	1.40842 ± 0.00032	1.40277 ± 0.00032	1.39775 ± 0.00032
x2 = 0.35	1.40558 ± 0.00032	1.3999 ± 0.00032	1.39484 ± 0.00032
x2 = 0.4	1.40277 ± 0.00032	1.39707 ± 0.00032	1.39197 ± 0.00032
x2 = 0.45	1.39999 ± 0.00032	1.39428 ± 0.00032	1.38912 ± 0.00032
x2 = 0.5	1.39721 ± 0.00032	1.3915 ± 0.00032	1.38631 ± 0.00032
x2 = 0.55	1.3945 ± 0.00032	1.38878 ± 0.00032	1.38356 ± 0.00032
x2 = 0.6	1.3918 ± 0.00032	1.3861 ± 0.00032	1.38083 ± 0.00032
x2 = 0.65	1.38914 ± 0.00032	1.38347 ± 0.00032	1.37818 ± 0.00032
x2 = 0.7	1.38652 ± 0.00032	1.38082 ± 0.00032	1.37552 ± 0.00032
x2 = 0.75	1.38392 ± 0.00031	1.37823 ± 0.00031	1.37286 ± 0.00031
x2 = 0.8	1.38136 ± 0.00031	1.37565 ± 0.00031	1.37025 ± 0.00031
x2 = 0.85	1.37883 ± 0.00031	1.37309 ± 0.00031	1.36765 ± 0.00031
x2 = 0.9	1.37629 ± 0.00031	1.37053 ± 0.00031	1.36503 ± 0.00031
x2 = 0.95	1.37377 ± 0.00031	1.36799 ± 0.00031	1.36243 ± 0.00031

[2]
Details	mass density [kg/m3]	viscosity [mPa·s]
x2 = 0	773.4 ± 0.3	0.784
x2 = 0.0502	771.3 ± 0.3	0.744
x2 = 0.1	768.9 ± 0.3	0.697
x2 = 0.15	766.6 ± 0.3	0.66
x2 = 0.2	764.3 ± 0.3	0.627
x2 = 0.25	761.9 ± 0.3	0.595
x2 = 0.3	759.6 ± 0.3	0.568
x2 = 0.35	757.4 ± 0.3	0.543
x2 = 0.4	755.1 ± 0.3	0.522
x2 = 0.45	752.8 ± 0.3	0.503
x2 = 0.5	–	0.484
x2 = 0.55	–	0.466
x2 = 0.6	–	0.447
x2 = 0.65	–	0.431
x2 = 0.7	–	0.415
x2 = 0.75	–	0.403
x2 = 0.8	–	0.389
x2 = 0.85	–	0.379
x2 = 0.9	–	0.368
x2 = 0.95	–	0.358
